US20240279281A1, “Peptide Inhibitors of Interleukin-23 Receptor” (Janssen Pharmaceutica NV, priority 2023, published 2024)
Where two headings read alike, the source gives them in different places. Starred links: 1 amine or outer side, 2 acyl side, 3 side chain; linkers in the order of their positions; H or OH if unused. Positions of bridges follow the written chain, without caps; N, C: chain ends. Non-standard residues stand in square brackets, D forms with d. Residues, ends and D or L forms follow the SMILES beside them. Groups on a side chain read outwards from the residue. *: point of attachment. Trp(7-(3-AcNH-Ph)) = CC(=O)Nc1cccc(-c2cccc3c(C[C@H](N)C(=O)O)c[nH]c23)c1; Me3N+(CH2)2O(CH2)2O(CH2)2CO = C[N+](C)(C)CCOCCOCCC(=O)*; 2Nal(6-OH) = N[C@@H](Cc1ccc2cc(O)ccc2c1)C(=O)O; Trp(7-Me) = Cc1cccc2c(C[C@H](N)C(=O)O)c[nH]c12; C18 diacid = O=C(O)CCCCCCCCCCCCCCCCC(=O)*; γGlu = O=C(O)[C@H](CCC(=O)[*:2])N[*:1]; AEF = NCCOc1ccc(C[C@H](N)C(=O)O)cc1; 3Pal = N[C@@H](Cc1cccnc1)C(=O)O; Ethyl(2-guanidino) = N=C(N)NCC*; Aad = N[C@@H](CCCC(=O)O)C(=O)O; Lys(Me) = CNCCCC[C@H](N)C(=O)O; Pen = CC(C)(S)[C@H](N)C(=O)O; Thp = NC1(C(=O)O)CCOCC1; X18 = C[N+](C)(C)CCCCC*; AEEA = NCCOCCOCC(=O)O; Sar = CNCC(=O)O

Columns and labels:
[1] = disulfide bond, 20-membered ring
[2] = biological target: T1, IL-23R (Homo sapiens, UniProt Q5VWK5); test: IL23R Reporter Assay; format: cell-based; details: HEK293 cells containing IL-23R, IL-12Rβ1 and STAT-inducible luciferase reporter; 10 ng/mL IL-23; 5 h; read-out: IC50
T1 construct: host or cells: HEK293
T1 sequence (Q5VWK5 24-629): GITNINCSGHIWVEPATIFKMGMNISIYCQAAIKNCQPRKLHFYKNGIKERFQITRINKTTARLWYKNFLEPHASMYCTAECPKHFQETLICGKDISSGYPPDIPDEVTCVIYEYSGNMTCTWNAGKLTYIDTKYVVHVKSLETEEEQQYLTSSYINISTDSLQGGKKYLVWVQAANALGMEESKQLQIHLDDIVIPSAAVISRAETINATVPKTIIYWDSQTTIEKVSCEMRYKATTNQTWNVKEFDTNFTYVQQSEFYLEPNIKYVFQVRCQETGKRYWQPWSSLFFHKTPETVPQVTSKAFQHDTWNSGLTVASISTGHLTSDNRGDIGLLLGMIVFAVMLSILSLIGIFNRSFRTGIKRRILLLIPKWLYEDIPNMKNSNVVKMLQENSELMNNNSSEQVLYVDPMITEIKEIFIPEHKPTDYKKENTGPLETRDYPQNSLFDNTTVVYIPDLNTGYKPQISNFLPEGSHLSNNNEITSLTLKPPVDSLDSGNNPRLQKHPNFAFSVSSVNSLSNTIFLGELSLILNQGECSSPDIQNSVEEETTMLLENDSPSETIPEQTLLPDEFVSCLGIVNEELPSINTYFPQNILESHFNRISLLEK
Procedure: Compounds were serially diluted in 100% (v/v) DMSO) and plated using an Echo acoustic dispenser (Labcyte) into 1536-well non-treated black assay plates (Corning #9146). […] After 5 h at 37° C., 5% CO2, 95% relative humidity, cells were placed at 20° C. and treated with BioGlo reagent (Promega) according to the Manufacturer's instructions. Luminescence was measured on a Pherastar FSX (BMG LabTech).

[3] = biological target: T2, IL-23-stimulated phosphorylated STAT3 in peripheral blood mononuclear cells (PBMCs) (Homo sapiens, UniProt Q5VWK5); test: PBMC pSTAT3 Assay; format: cell-based; details: PBMCs from healthy donors, IL-23 5 ng/mL, 30 minutes, read-out: PBMC pSTAT3 IC50
T2 sequence (Q5VWK5 24-629): T1 sequence (Q5VWK5 24-629)
Procedure: Cryopreserved peripheral blood mononuclear cells (PBMCs) from healthy donors were thawed and washed twice in ImmunoCult-XF T cell expansion medium (XF-TCEM) supplemented with CTL anti-aggregate wash. The cells were counted, resuspended at 2-6×10^5 cells per mL XF-TCEM supplemented with penicillin/streptomycin and 100 ng/mL IL-1β (BioLegend, 579404), and cultured in tissue culture flasks coated with anti-CD3 (eBioscience, 16-0037-85 or BD Pharmingen, 555329) at 37° C. in 5% CO2. On day 4 of culture, PBMCs were collected, washed twice in RPMI-1640 supplemented with 0.1% BSA (RPMI-BSA), and incubated in RPMI-BSA in upright tissue culture flasks for ˜4 hours at 37° C. in 5% CO2. Following this ‘starvation,’ a total of 6×10^4 cells in 30 μL RPMI-BSA was transferred into each well of a 384-well plate pre-spotted with peptide or DMSO. The cells were incubated for 30 minutes prior to the addition of IL-23 at a final concentration of 5 ng/mL. The cells were stimulated with cytokine for 30 minutes at 37° C. in 5% CO2, transferred onto ice for 10 minutes, and lysed. Cell lysates were stored at −80° C. until phosphorylated STAT3 was measured using the phospho-STAT panel kit (Meso Scale Discovery, K15202D).

IC50 [2] [nM]	IC50 [3] [nM]	Compound	also measured
< 10	0.01 to 0.1	Cc1cccc2c(C[C@@H]3NC(=O)[C@H]([C@@H](C)O)NC(=O)[C@H](CC(N)=O)NC(=O)[C@@H](NC(=O)CCOCCOCC[N+](C)(C)C)C(C)(C)SSC(C)(C)[C@@H](C(=O)N[C@@H](Cc4ccc(OCCN)cc4)C(=O)N[C@@H](Cc4ccc5cc(O)ccc5c4)C(=O)NC4(C(=O)N[C@@H](CCC(=O)O)C(=O)N[C@@H](CC(N)=O)C(=O)N[C@@H](Cc5cccnc5)C(=O)N(C)CC(N)=O)CCOCC4)NC(=O)[C@H](CCCCN(C)C(=O)CCOCCOCC[N+](C)(C)C)NC3=O)c[nH]c12 [compound 319, cPEG3aCO-Pen(3)-N-T-7MeW-K(NMecPEG3a)-Pen(3)-AEF-6OH2Nal-THP-E-N-3Pya-Sar-CONH2] ({Me3N+(CH2)2O(CH2)2O(CH2)2CO}-[Pen]NT[Trp(7-Me)][Lys(Me)](Me3N+(CH2)2O(CH2)2O(CH2)2CO)[Pen][AEF][2Nal(6-OH)][Thp]EN[3Pal][Sar]-NH2; disulfide 1-6)	
< 10	0.01 to 0.1	CC(=O)NCCCC[C@@H]1NC(=O)[C@H](Cc2c[nH]c3c(C)cccc23)NC(=O)[C@H]([C@@H](C)O)NC(=O)[C@H](CC(N)=O)NC(=O)[C@@H](NC(=O)[C@@H](CCCNC(=N)N)NC(C)=O)C(C)(C)SSC(C)(C)[C@@H](C(=O)N[C@@H](Cc2ccc(OCCCCC[N+](C)(C)C)cc2)C(=O)N[C@@H](Cc2ccc3cc(O)ccc3c2)C(=O)NC2(C(=O)N[C@@H](CCC(=O)O)C(=O)N[C@@H](CC(N)=O)C(=O)N[C@@H](Cc3cccnc3)C(=O)N(C)CC(N)=O)CCOCC2)NC1=O [compound 59, MeCO-r-Pen(3)-N-T-7MeW-K(Ac)-Pen(3)-TMAPF-6OH2Nal-THP-E-N-3Pya-Sar-CONH2] (Ac-[dR][Pen]NT[Trp(7-Me)]K(Ac)[Pen]Y(X18)[2Nal(6-OH)][Thp]EN[3Pal][Sar]-NH2; disulfide 2-7)	
< 10	0.01 to 0.1	CC(=O)NCCCC[C@@H]1NC(=O)[C@H](Cc2c[nH]c3c(-c4cccc(NC(C)=O)c4)cccc23)NC(=O)[C@H]([C@@H](C)O)NC(=O)[C@H](CC(N)=O)NC(=O)[C@@H](NC(=O)CCOCCOCC[N+](C)(C)C)C(C)(C)SSC(C)(C)[C@@H](C(=O)N[C@@H](Cc2ccc(OCCNC(=N)N)cc2)C(=O)N[C@@H](Cc2ccc3cc(O)ccc3c2)C(=O)NC2(C(=O)N[C@@H](CCCCN(C)C(C)=O)C(=O)N[C@@H](CC(N)=O)C(=O)N[C@@H](Cc3cccnc3)C(=O)N(C)CC(N)=O)CCOCC2)NC1=O [compound 34, cPEG3aCO-Pen(3)-N-T-7(3NAcPh)W-K(Ac)-Pen(3)-AEF(G)-6OH2Nal-THP-K(NMeAc)-N-3Pya-Sar-CONH2] ({Me3N+(CH2)2O(CH2)2O(CH2)2CO}-[Pen]NT[Trp(7-(3-AcNH-Ph))]K(Ac)[Pen]Y(Ethyl(2-guanidino))[2Nal(6-OH)][Thp][Lys(Me)](Ac)N[3Pal][Sar]-NH2; disulfide 1-6)	
10 to 100	0.01 to 0.1	CC(=O)NCCCC[C@@H]1NC(=O)[C@H](Cc2c[nH]c3c(C)cccc23)NC(=O)[C@H]([C@@H](C)O)NC(=O)[C@H](CC(N)=O)NC(=O)[C@@H](NC(C)=O)C(C)(C)SSC(C)(C)[C@@H](C(=O)N[C@@H](Cc2ccc(OCCN)cc2)C(=O)N[C@@H](Cc2ccc3cc(O)ccc3c2)C(=O)NC2(C(=O)N[C@@H](CCCCNC(=O)COCCOCCNC(=O)COCCOCCNC(=O)CC[C@H](NC(=O)CCCCCCCCCCCCCCCCC(=O)O)C(=O)O)C(=O)N[C@@H](CC(N)=O)C(=O)N[C@@H](Cc3cccnc3)C(=O)N(C)CC(N)=O)CCOCC2)NC1=O [SEQ ID NO: 273, MeCO-Pen(3)-N-T-7MeW-K(Ac)-Pen(3)-AEF-6OH2Nal-THP-K(PEG2PEG2gEC18OH)-N-3Pya-Sar-CONH2] (Ac-[Pen]NT[Trp(7-Me)]K(Ac)[Pen][AEF][2Nal(6-OH)][Thp]K([AEEA-AEEA-γGlu-C18 diacid])N[3Pal][Sar]-NH2; disulfide 1-6)	
< 10	< 0.01	CC(=O)N(C)CCCC[C@@H]1NC(=O)[C@H](Cc2c[nH]c3c(C)cccc23)NC(=O)[C@H]([C@@H](C)O)NC(=O)[C@H](CC(=O)N(C)C)NC(=O)[C@H]2NC(=O)[C@H](NC(=O)CCOCCOCC[N+](C)(C)C)CCCCNC(=O)CCC[C@@H](C(=O)N[C@@H](CC(N)=O)C(=O)N[C@@H](Cc3cccnc3)C(=O)N(C)CC(=O)N(C)C)NC(=O)C3(CCOCC3)NC(=O)[C@H](Cc3ccc4cc(O)ccc4c3)NC(=O)[C@H](Cc3ccc(OCCN)cc3)NC(=O)[C@@H](NC1=O)C(C)(C)SSC2(C)C [compound 373, cPEG3aCO-k(2)-Pen(3)-N(N(Me)2)-T-7MeW-K(NMeAc)-Pen(3)-AEF-6OH2Nal-THP-hE(2)-N-3Pya-Sar-CON(Me)2] ({Me3N+(CH2)2O(CH2)2O(CH2)2CO}-[dK][Pen]D(NMe2)T[Trp(7-Me)][Lys(Me)](Ac)[Pen][AEF][2Nal(6-OH)][Thp][Aad]N[3Pal][Sar]-NMe2; lactam 1-11; disulfide 2-7)	

More lines, now with the values behind:

Compound	IC50 [2] [nM]	IC50 [3] [nM]	also measured
MeCO-Pen(3)-N(N(Me)2)-T-7MeW-Dab(NMecarn)-Pen(3)-AEF-6OH2Nal-THP-Dab(NMecarn)-N-3Pya-Sar-CON(Me)2			ring closure, yield after HPLC ([1]; I2/AcOH, MeCN/H2O, 2.09 mM): 23%
CC(=O)NCCCC[C@@H]1NC(=O)[C@H](Cc2c[nH]c3c(C)cccc23)NC(=O)[C@H]([C@@H](C)O)NC(=O)[C@H](CC(N)=O)NC(=O)[C@@H](NC(=O)[C@@H](CCCNC(=N)N)NC(C)=O)C(C)(C)SSC(C)(C)[C@@H](C(=O)N[C@@H](Cc2ccc(OCCN)cc2)C(=O)N[C@@H](Cc2ccc3cc(Br)ccc3c2)C(=O)NC2(C(=O)N[C@@H](CCC(=O)O)C(=O)N[C@@H](CC(N)=O)C(=O)NC3(C(N)=O)CCOCC3)CCOCC2)NC1=O			ring closure, yield after HPLC ([1]; from Ac-dArg-Pen-Asn-Thr-7MeTrp-Lys(Ac)-Pen-AEF-6Br2Nal-THP-Glu-Asn-THP-NH2, I2/MeOH, 20% MeCN/H2O, 0.977 mM): 34.1%
Cc1cccc2c(C[C@@H]3NC(=O)[C@H]([C@@H](C)O)NC(=O)[C@H](CC(N)=O)NC(=O)[C@@H](NC(=O)CCOCCOCC[N+](C)(C)C)C(C)(C)SSC(C)(C)[C@@H](C(=O)N[C@@H](Cc4ccc(OCCN)cc4)C(=O)N[C@@H](Cc4ccc5cc(O)ccc5c4)C(=O)NC4(C(=O)N[C@@H](CCCCN(C)C(=O)CCOCCOCC[N+](C)(C)C)C(=O)N[C@@H](CC(N)=O)C(=O)N[C@@H](Cc5cccnc5)C(=O)N(C)CC(N)=O)CCOCC4)NC(=O)[C@H](CCCCN(C)C(=O)CCOCCOCC[N+](C)(C)C)NC3=O)c[nH]c12			ring closure, yield after HPLC ([1]; from cPEG3aCO-Pen-Asn-Thr-7MeTrp-Lys(NMecPEG3a)-Pen-AEF-6OH2Nal-THP-Lys(NMecPEG3a)-Asn-3Pya-Sar-NH2, I2/MeOH, 20% MeCN/H2O, 0.6 mM): 11.7%
CC(=O)NCCCC[C@@H]1NC(=O)[C@H](Cc2c[nH]c3c(C)cccc23)NC(=O)[C@H]([C@@H](C)O)NC(=O)[C@@H]2CCCCNCCOc3ccc(cc3)C[C@@H](C(=O)N[C@@H](Cc3ccc4cc(O)ccc4c3)C(=O)NC3(C(=O)N[C@@H](CCCCNC(C)=O)C(=O)N[C@@H](CC(N)=O)C(=O)N[C@@H](Cc4cccnc4)C(=O)N(C)CC(N)=O)CCOCC3)NC(=O)[C@@H](NC1=O)C(C)(C)SSC(C)(C)[C@H](NC(=O)CCCCC[N+](C)(C)C)C(=O)N2 [compound 112, 5cpaCO-Pen(3)-K(5)-T-7MeW-K(Ac)-Pen(3)-AEF(5)-6OH2Nal-THP-K(Ac)-N-3Pya-Sar-CONH2]	< 10	< 0.01	
